# From patent publication US7776558B2, “Human G protein-coupled receptor and modulators thereof for the treatment of cell death-related disorders” (Arena Pharmaceuticals, Inc., priority 2003, dated 2010)
# Where “and” joins values, the source holds several entries; their conditions need not be identical. Equal values may be shown once. Entries after “also recorded” stand apart in the source; their conditions may differ. Read-outs that look alike come from different tables or passages of the source. Where no end group is shown, it is not given here.
# Biological target: T1, human FPRL2 (Homo sapiens, UniProt P25089)
# T1 sequence (P25089 with tags, fused parts or gaps): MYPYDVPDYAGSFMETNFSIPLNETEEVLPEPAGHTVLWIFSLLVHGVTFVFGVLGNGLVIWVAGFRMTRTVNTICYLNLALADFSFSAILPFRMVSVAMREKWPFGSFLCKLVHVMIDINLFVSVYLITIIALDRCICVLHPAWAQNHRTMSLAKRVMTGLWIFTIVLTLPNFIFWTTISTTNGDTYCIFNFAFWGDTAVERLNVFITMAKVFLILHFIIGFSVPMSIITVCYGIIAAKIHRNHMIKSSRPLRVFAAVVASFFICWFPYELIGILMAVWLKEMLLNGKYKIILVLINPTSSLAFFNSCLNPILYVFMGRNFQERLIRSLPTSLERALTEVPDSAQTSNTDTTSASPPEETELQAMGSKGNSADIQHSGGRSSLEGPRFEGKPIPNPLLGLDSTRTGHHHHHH
# Assay: [35S]GTPγS binding assay, membranes of transiently transfected CHO cells
# Type: biochemical
# Set-up: expressed in transfected cells; host or cells: CHO-K1 cells, transient, pCMV; plasma membranes
# Protocol: The plasmids used were HA/V5 doubled tagged endogenous FPRL2 in pCMV, HA/V5 double-tagged endogenous FPRL1 in pCMV, HAN5 double-tagged endogenous FPR in pCMV, and pCMV alone (See, Example 1). Transient transfections were carried out on CHO-K1 cells. To a 15 cm dish of confluent cells, 12 μg of plasmid DNA and 60 μl Lipofectamine (Invitrogen, Carlsbad, Calif.) were added to each plate. Twenty-four hours post-infection, plasma membranes were isolated as described below. Assays were then run as described below.
# “Membrane Scrape Buffer” consists of 20 mM HEPES and 10 mM EDTA, pH 7.4; “Membrane Wash Buffer” consists of […] and 0.1 mM EDTA, pH 7.4; “Binding. Buffer” consists of 20 mM HEPES, 100 mM NaCl, and 10 mM MgCl2, pH 7.4.
# All materials were kept on ice throughout the procedure. Firstly, the media was aspirated from a confluent monolayer of transfected cells, followed by rinse with 10 ml cold PBS, followed by aspiration. Thereafter, 10 ml of Membrane Scrape Buffer was added to scrape cells; this was followed by transfer of cellular extract into 50 ml centrifuge tubes (centrifuged at 20,000 rpm for 17 minutes at 4° C.). Thereafter, the supernatant was aspirated and the pellet was resuspended in 30 ml Membrane Wash Buffer followed by centrifuging at 20,000 rpm for 17 minutes at 4° C. The supernatant was then aspirated and the pellet resuspended in Binding Buffer. This was then homogenized using a Brinkman Polytron™ homogenizer (15-20 second bursts until the all material is in suspension). This is referred to herein as “Membrane Protein”. A protein determination (Bradford Protein Assay) was carried out, and the protein concentration of the Membrane Protein was adjusted to 1.0 mg/ml with cold Binding Buffer for each of the experimental samples (FPRL2, FPRL1, FPR, pCMV).
# GDP Buffer consisted of 37.5 ml Binding Buffer and 2 mg GDP (Sigma, cat. no. G-7127), followed by a series of dilutions in Binding Buffer to obtain 0.2 μM GDP (final concentration of GDP in each well was 0.1 μM GDP); each well comprising a candidate compound, has a final volume of 200 μl consisting of 100 μl GDP Buffer (final concentration, 0.1 μM GDP), 50 μl Membrane Protein in Binding Buffer, and 50 μl [35S]GTPγS (0.6 nM) in Binding Buffer (2.5 μl [35S]GTPγS per 10 ml Binding Buffer).
# First, 100 μl GDP Buffer was added to each well of a Wallac Scintistrip™ (Wallac). […] Thereafter, 50 μl of Membrane Protein was added to each well (a control well comprising membranes without the GPCR Protein was also utilized), and pre-incubated for 5-10 minutes at room temperature. Thereafter, 50 μl of [^35S]GTPγS (0.6 nM) in Binding Buffer was added to each well, followed by incubation on a shaker for 60 minutes at room temperature (again, in this example, plates were covered with foil). The assay was then stopped by spinning of the plates at 4000 RPM for 15 minutes at 22° C. The plates were then aspirated with an 8 channel manifold and sealed with plate covers. The plates were then read on a Wallac 1450 using setting “Prot. #37” (as per manufacturer instructions).
# [1] = read-out: EC50 in [35S]GTPγS binding assay
# [2] = FIG. 3 panel A, transiently transfected CHO cells, read-out: EC50 at FPRL2, promoted [35S]GTPγS binding
Molecule,EC75 in [35S]GTPγS binding assay,"Activity at human FPRL2, FPRL1 and FPR (by [35S]GTPγS binding assay and by melanophore assay, FIG. 5)",EC50 [1],EC50 [2],EC50 values at FPRL2 relative to the corresponding values at FPRL1 (FPRL2 versus FPRL1),"Agonist activity and selectivity for FPRL2 (compared with FPRL1 and FPR, FIG. 3)"
"CC(C)c1ccc2c(c1)CCC1C(C)(C(N)=O)CCCC21C (stereo not drawn) [Compound 1, 7-Isopropyl-1,4a-dimethyl-1,2,3,4,4a,9,10,10a-octahydro-phenanthrene-1-carboxylic acid amide]",about 15 μM,robust and selective agonist of FPRL2,~2800 nM,–,–,–
CC[C@H](C)[C@H](NC(=O)[C@H](CCC(=O)O)NC(=O)[C@H](CO)NC(=O)[C@@H](NC(=O)[C@H](CC(C)C)NC(=O)[C@H](CC(C)C)NC(=O)[C@H](CC(C)C)NC(=O)[C@H](CC(C)C)NC(=O)[C@H](CS)NC(=O)[C@H](CO)NC(=O)[C@H](Cc1ccccc1)NC(=O)CNC(=O)[C@H](CCCNC(=N)N)NC(=O)[C@@H]1CCCN1C(=O)[C@H](C)NC(=O)[C@@H](N)CCSC)[C@@H](C)O)C(=O)N[C@@H](CC(=O)O)C(=O)N[C@@H](CC(C)C)C(=O)N1CCC[C@H]1C(=O)N[C@H](C(=O)N[C@@H](CCCCN)C(=O)N[C@@H](CCCNC(=N)N)C(=O)N[C@@H](CCCNC(=N)N)C(=O)N[C@@H](C)C(=O)O)C(C)C [Humanin],about 1.5 μM,–,~320 nM and ~300 nM,~320 nM,–,–
MAPRGFSCLLLLTGEIDLPVKRRA [[Gly14]-Humanin],–,–,–,~72 nM,more than an order of magnitude lower,selective and robust agonists for FPRL2; also recorded: robust and selective agonists for FPRL2
